# Activity calls are given as the source filed them. The calls are words filed in the database; no cut-off is given here.
# Key:
# [1] = system: BMMC; test: Anti-osteoporosis activity in C57BL/6 mouse BMM cells assessed as inhibition of M-CSF/RANKL-induced osteoclastogenesis by measuring reduction in multinucleated TRAP+ cells incubated for 5 days with media replenishment for every 48 hrs measured by TRAP-staining based analysis; format: functional, cell-based; conditions: C57BL/6, BMMC
# [2] = Cytotoxicity against C57BL/6 mouse BMM cells assessed as reduction in cell viability measured after 48 hrs in presence of M-CSF by CCK8 assay; format: cell-based, BMMC; conditions: BMM cells (bone marrow-derived)
# [3] = system: Mus musculus; test: Antiosteoporotic activity against OVX-induced bone loss C57BL/6 mouse model assessed as increase in bone volume/total bone volume in femoral metaphysis at 10 mg/kg, po QD for 4 weeks; format: functional, organism-based; conditions: dose 10.0 mg/kg/day
# [4] = system: Mus musculus; test: Antiosteoporotic activity against OVX-induced bone loss C57BL/6 mouse model assessed as increase in trabecular thickness in femoral metaphysis at 10 mg/kg, po QD for 4 weeks; format: functional, organism-based; conditions: dose 10.0 mg/kg/day
# [5] = system: Mus musculus; test: Antiosteoporotic activity against OVX-induced bone loss C57BL/6 mouse model assessed as decrease in ACP5 level in serum at 10 mg/kg, po QD for 4 weeks; format: functional, organism-based; conditions: dose 10.0 mg/kg/day
# [6] = system: BMMC; test: Anti-osteoporosis activity in C57BL/6 mouse BMM cells assessed as inhibition of M-CSF/RANKL-induced bone resorption by measuring suppression of reabsorbing pits formation after 48 hrs by hydroxyapatite assay using Leica inverted microscope; format: functional, cell-based; conditions: dose 1-10 µM
# [7] = system: Mus musculus; test: Antiosteoporotic activity against OVX-induced bone loss C57BL/6 mouse model assessed as decrease in trabecular spacing in femoral metaphysis at 10 mg/kg, po QD for 4 weeks; format: functional, organism-based; conditions: dose 10.0 mg/kg/day
# [8] = system: Mus musculus; test: Antiosteoporotic activity against OVX-induced bone loss C57BL/6 mouse model assessed as increase in trabecular number in femoral metaphysis at 10 mg/kg, po QD for 4 weeks; format: functional, organism-based; conditions: dose 10.0 mg/kg/day
compound,measurement,setting,value
C=C1CC[C@H]2[C@@](C)(CC[C@@H](O)[C@@]2(C)C(=O)NCCc2ccc(OC)cc2)[C@@H]1/C=C/C1=CCOC1=O,IC50,[1],> 30000 nM
C=C1CC[C@@H]2[C@](C)(CNCc3ccc(C)cc3)[C@H](O)CC[C@@]2(C)[C@@H]1/C=C/C1=CCOC1=O,IC50,[1],740 nM
C=C1CC[C@@H]2[C@](C)(CNCc3ccc(OC)c(OC)c3)[C@H](O)CC[C@@]2(C)[C@@H]1/C=C/C1=CCOC1=O,IC50,[1],3740 nM
C=C1CC[C@@H]2[C@](C)(CNCc3ccc(Br)cc3)[C@H](O)CC[C@@]2(C)[C@@H]1/C=C/C1=CCOC1=O,IC50,[1],430 nM
C=C1CC[C@H]2[C@@](C)(CC[C@@H](O)[C@@]2(C)C(=O)NCc2ccc(OC)cc2)[C@@H]1/C=C/C1=CCOC1=O,IC50,[1],6530 nM
C=C1CC[C@@H]2[C@](C)(CNCc3ccc(C#N)cc3)[C@H](O)CC[C@@]2(C)[C@@H]1/C=C/C1=CCOC1=O,IC50,[1],1130 nM
C=C1CC[C@H]2[C@@](C)(CC[C@@H](O)[C@@]2(C)C(=O)NCc2ccccc2)[C@@H]1/C=C/C1=CCOC1=O,IC50,[1],19400 nM
C=C1CC[C@@H]2[C@](C)(CNCc3ccncc3)[C@H](O)CC[C@@]2(C)[C@@H]1/C=C/C1=CCOC1=O,IC50,[1],2030 nM
C=C1CC[C@@H]2[C@](C)(CNCCc3ccc(C)cc3)[C@H](O)CC[C@@]2(C)[C@@H]1/C=C/C1=CCOC1=O,IC50,[1],870 nM
C=C1CC[C@@H]2[C@](C)(CO)[C@H](O)CC[C@@]2(C)[C@@H]1C/C=C1/C(=O)OC[C@H]1O [ANDROGRAPHOLIDE],CC50 at 48 h,[2],10.3 µM
same,IC50,[1],1010 nM
same,Activity,[3],Active
same,Activity,[4],Active
same,Activity,[5],Active
same,Activity,[6],Active
same,Activity,[7],Active
same,Activity,[8],Active
C=C1CC[C@@H]2[C@](C)(CNCc3ccc4c(c3)CC=N4)[C@H](O)CC[C@@]2(C)[C@@H]1/C=C/C1=CCOC1=O,IC50,[1],550 nM
C=C1CC[C@@H]2[C@](C)(CNCc3nccs3)[C@H](O)CC[C@@]2(C)[C@@H]1/C=C/C1=CCOC1=O,IC50,[1],700 nM
C=C1CC[C@@H]2[C@](C)(CNCCc3ccccc3)[C@H](O)CC[C@@]2(C)[C@@H]1/C=C/C1=CCOC1=O,IC50,[1],1020 nM
C=C1CC[C@@H]2[C@](C)(CNCc3ccc(OC)cc3)[C@H](O)CC[C@@]2(C)[C@@H]1/C=C/C1=CCOC1=O,IC50,[1],750 nM
C=C1CC[C@@H]2[C@](C)(CNCc3ccc(Cl)cc3)[C@H](O)CC[C@@]2(C)[C@@H]1/C=C/C1=CCOC1=O,IC50,[1],420 nM
NCCCC(O)(P(=O)(O)O)P(=O)(O)O [ALENDRONATE SODIUM],IC50,[1],1710 nM
C=C1CC[C@@H]2[C@](C)(CNCc3ccccc3)[C@H](O)CC[C@@]2(C)[C@@H]1/C=C/C1=CCOC1=O,IC50,[1],960 nM
C=C1CC[C@@H]2[C@](C)(CNCCc3ccc(C(F)(F)F)cc3)[C@H](O)CC[C@@]2(C)[C@@H]1/C=C/C1=CCOC1=O,IC50,[1],2980 nM
C=C1CC[C@@H]2[C@](C)(CO)[C@H](O)CC[C@@]2(C)[C@@H]1/C=C/C1=CCOC1=O,CC50 at 48 h,[2],> 30 µM
same,IC50,[1],8340 nM
C=C1CC[C@@H]2[C@](C)(CO)[C@H](O)CC[C@@]2(C)[C@@H]1CCC1C(=O)OC[C@H]1O (stereo partly drawn),CC50 at 48 h,[2],> 30 µM
same,IC50,[1],> 30000 nM
C=C1CC[C@@H]2[C@](C)(CNCc3cccs3)[C@H](O)CC[C@@]2(C)[C@@H]1/C=C/C1=CCOC1=O,IC50,[1],1070 nM
C=C1CC[C@@H]2[C@](C)(CNCc3ccco3)[C@H](O)CC[C@@]2(C)[C@@H]1/C=C/C1=CCOC1=O,IC50,[1],1830 nM
C=C1CC[C@@H]2[C@](C)(CO)[C@H](O)CC[C@@]2(C)[C@@H]1CC=O,CC50 at 48 h,[2],> 30 µM
same,IC50,[1],> 30000 nM
C=C1CC[C@@H]2[C@](C)(CNCCc3cccc(OC)c3)[C@H](O)CC[C@@]2(C)[C@@H]1/C=C/C1=CCOC1=O,IC50,[1],5450 nM
C=C1CC[C@H]2[C@@](C)(CC[C@@H](O)[C@@]2(C)C(=O)NCCc2cccs2)[C@@H]1/C=C/C1=CCOC1=O,IC50,[1],> 30000 nM
C=C1CC[C@H]2[C@@](C)(CC[C@@H](O)[C@@]2(C)C(=O)NCCc2ccc(F)cc2)[C@@H]1/C=C/C1=CCOC1=O,IC50,[1],> 30000 nM
C=C1CC[C@@H]2[C@](C)(CO)[C@H](O)CC[C@@]2(C)[C@@H]1C/C=C(/C(=O)O)[C@H](O)CO,CC50 at 48 h,[2],> 30 µM
same,IC50,[1],> 30000 nM
C=C1CC[C@@H]2[C@](C)(CNCCc3ccc(OC)cc3)[C@H](O)CC[C@@]2(C)[C@@H]1/C=C/C1=CCOC1=O,IC50,[1],1880 nM
C=C1CC[C@@H]2[C@](C)(CO)[C@H](O)CC[C@@]2(C)[C@@H]1C/C=C1\C=COC1=O,CC50 at 48 h,[2],20.6 µM
same,IC50,[1],2770 nM
C=C1CC[C@@H]2[C@](C)(CNCc3ccc(O)c(O)c3)[C@H](O)CC[C@@]2(C)[C@@H]1/C=C/C1=CCOC1=O,IC50,[1],9440 nM
C=C1CC[C@@H]2[C@](C)(CNCc3ccc([N+](=O)[O-])cc3)[C@H](O)CC[C@@]2(C)[C@@H]1/C=C/C1=CCOC1=O,IC50,[1],1340 nM
C=C1CC[C@@H]2[C@](C)(CNCc3cccc(OC)c3)[C@H](O)CC[C@@]2(C)[C@@H]1/C=C/C1=CCOC1=O,IC50,[1],780 nM
C=C1CC[C@@H]2[C@](C)(CNCCc3cccs3)[C@H](O)CC[C@@]2(C)[C@@H]1/C=C/C1=CCOC1=O,IC50,[1],3020 nM
C=C1CC[C@@H]2[C@](C)(CNCCc3ccc(F)cc3)[C@H](O)CC[C@@]2(C)[C@@H]1/C=C/C1=CCOC1=O,IC50,[1],480 nM
C=C1CC[C@H]2[C@@](C)(CC[C@@H](O)[C@@]2(C)C(=O)NCCc2ccccc2)[C@@H]1/C=C/C1=CCOC1=O,IC50,[1],> 30000 nM
C=C1CC[C@H]2[C@@](C)(CC[C@@H](O)[C@@]2(C)C(=O)NCc2ccc(Br)cc2)[C@@H]1/C=C/C1=CCOC1=O,IC50,[1],3450 nM
